This is an account of results in PMC12024191, “Pharmacological and Molecular Docking Investigation of Leaves of Eriobotrya japonica: Antioxidant, Enzyme Inhibition, and Anti-Inflammatory Effects” (Antioxidants, 2025).

The nature of assay [1]: Radical scavenging activity of superoxide. The note with it: for EC50: isolated components (Table 4), read-out: SC50 Superoxide. On the procedure: According to a previously reported procedure, the superoxide radical solution was prepared in Tris-HCl buffer (16 mM, pH 8.0) containing 300 µM NBT (50 µL), 120 µM PMS (50 µL), and tested sample solution (50 µL). […] The absorbance at 560 nm was measured using an ELISA reader, and the scavenging activity was calculated by the following equation. Scavenging rate (%) = (Acontrol − Asample)/Acontrol × 100% where Acontrol was the absorbance of the control and Asample was that of the tested sample.

A short description of assay [2]: Radical scavenging activity of DPPH. To be noted: for EC50: isolated components (Table 4), read-out: SC50 DPPH. As for the experimental part: According to the method reported in [48], a DPPH radical solution (400 μM) was prepared in EtOH. The tested samples were diluted to the desired concentrations with EtOH. In a 96-well plate, diluted tested sample solution (100 μL) was mixed with 100 μL of the DPPH radical solution (200 μM). The mixture was allowed to react at room temperature for 30 min in the dark. After the reaction, the absorbance at 520 nm was measured using an ELISA reader (TECAN Sunrise, Männedorf, Schweiz). The scavenging activity was calculated using the following equation. Scavenging rate (%) = (Acontrol − Asample)/Acontrol × 100% where Acontrol was the absorbance of the control and Asample was that of the tested sample.
(The DPPH test is a chemical assay of radical scavenging.)

A short description of assay [3]: Radical scavenging activity of ABTS. The note with it: for EC50: isolated components (Table 4), read-out: SC50 ABTS. On the procedure: According to the method reported in [49], ABTS solution (28 mM) was mixed with potassium permanganate solution (9.6 mM) in an equal ratio (v/v = 1:1) and allowed to react at room temperature in the dark for 16 h to generate the ABTS radical solution. The ABTS radical solution was then diluted with EtOH until the absorbance reached 0.70 ± 0.02 at 740 nm. The tested samples were subsequently diluted to the desired concentrations with EtOH. In a 96-well plate, the ABTS radical solution (190 μL) was mixed with the sample solution (10 μL) and was allowed to react at room temperature for 6 min in the dark. The absorbance was then measured at 740 nm using an ELISA reader. The scavenging activity was calculated using the following equation. Scavenging rate (%) = (Acontrol − Asample)/Acontrol × 100% where Acontrol was the absorbance of the control and Asample was that of the tested sample.

Assay [4] is described as follows: Ferric reducing antioxidant power (FRAP). As for the experimental part:
According to the previously published methods, acetate buffer (pH 3.6), FeCl3 solution (20 mM), and 10 m TPTZ solution (prepared in 40 mM HCl) were mixed in a ratio of 10:1:1 to generate the FRAP working solution. Then, the working solution was warmed to 37 °C before being used. The diluted sample, blank, or standard solution (100 µL) was mixed with the warm-up working solution (900 µL) and incubated for 40 min in a dry bath at 37 °C. The absorbance at 593 nm was measured using an ELISA reader. The standard curve was linear from 0 to 100 mM Trolox, and the data were expressed as mM TE/g dry weight.

Assay [5] deals with T1, α-glucosidase (Saccharomyces cerevisiae, UniProt P53341).
T1 construct: purchased Sigma-Aldrich
T1 sequence (P53341 whole entry): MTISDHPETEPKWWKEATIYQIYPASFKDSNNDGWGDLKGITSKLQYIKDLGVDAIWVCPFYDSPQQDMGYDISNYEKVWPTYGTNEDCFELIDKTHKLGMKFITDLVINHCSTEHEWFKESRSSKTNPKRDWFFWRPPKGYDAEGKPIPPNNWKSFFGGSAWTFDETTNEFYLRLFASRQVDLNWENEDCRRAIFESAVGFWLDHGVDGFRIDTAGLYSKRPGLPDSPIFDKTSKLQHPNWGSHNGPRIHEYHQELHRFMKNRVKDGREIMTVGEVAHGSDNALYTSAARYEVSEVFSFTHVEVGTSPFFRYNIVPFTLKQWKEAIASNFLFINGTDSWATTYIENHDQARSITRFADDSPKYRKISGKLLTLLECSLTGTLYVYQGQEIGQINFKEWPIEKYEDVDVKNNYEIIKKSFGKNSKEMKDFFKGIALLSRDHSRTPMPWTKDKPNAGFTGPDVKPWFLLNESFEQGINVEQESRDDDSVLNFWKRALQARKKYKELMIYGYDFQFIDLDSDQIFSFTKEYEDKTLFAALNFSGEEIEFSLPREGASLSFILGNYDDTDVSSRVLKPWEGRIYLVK
Description: Enzyme inhibition assay of α-glucosidase. In kind it is biochemical, S. cerevisiae. As for the experimental part: The inhibitory activity of α-glucosidase was determined based on the previously reported method. The α-glucosidase solution was prepared with sodium phosphate buffer (pH 6.8, 0.1 M) and diluted to 1 U/mL. Subsequently, the tested sample solution (100 µL), diluted α-glucosidase solution (20 µL), and 0.53 mM p-NPG (380 µL) were mixed and incubated at 37 °C for 40 min. […] The activity was calculated by the following equation. α-Glucosidase inhibition (%) = (Acontrol − Asample)/Acontrol × 100% where Asample and Acontrol represent the absorbance values of the tested sample and control, respectively.

Assay [6] has as its target T2, acetylcholinesterase (AChE) (Electrophorus electricus, UniProt O42275).
T2 construct: purchased Sigma-Aldrich
Description: biochemical. On the procedure:
The AChE inhibition was carried out based on the previous method. The sodium phosphate buffer (pH 8.0, 0.1 M, 140 μL), DTNB (10 μL), tested sample (20 μL), and AChE solution (15 μL) were mixed in a 96-well plate. After incubating at room temperature for 10 min, the absorbance was measured at 405 nm. The inhibitory effect was calculated by the following equation. Acetylcholinesterase inhibition (%) = (Acontrol − Asample)/Acontrol × 100% where Asample and Acontrol represent the absorbance values of the tested sample and control, respectively.

Assay [7] has as its system NO production of LPS-induced RAW264.7 cells. Kind of assay: LPS-induced NO inhibition assay (Griess). The note with it: Mus musculus, read-out: NO inhibition IC50. In kind it is cell-based, Murine. As for the experimental part:
LPS-induced NO production of RAW264.7 cells was determined by Griess assay. The 100 μL quantity of cells was seeded in 96-well plates at an amount of 5 × 10^4 cells/well and incubated for 24 h. The cells were then treated with 100 ng/mL LPS with vehicle or different concentrations of the tested sample for 24 h. […] The absorbance was measured at 540 nm to calculate the NO inhibition. Sodium nitrite was used to generate a standard curve.
(The Griess reaction detects nitrite, a stable product of nitric oxide.)

Assay [8] deals with iNOS expression in LPS-stimulated RAW264.7 cells. Kind of assay: Western blot analysis of iNOS expression. In kind it is cell-based, Murine. To be noted: compared to the LPS group (100 ng/mL LPS). For orientation: In western blotting, separated proteins are transferred to a membrane and probed.
The mark [9] stands for this setting: solvent extracts, concentration causing 50% free radical scavenging.
[10] abbreviates: isolated components (Table 4), mM Trolox equivalents per g.
The mark [11] stands for this setting: 100 ng/mL LPS, 24 h, RAW264.7 cells.

SMILES strings stand for the structures. Read-outs that look alike come from different tables or passages of the source. A value given as a limit tells only on which side of the number the result lay.

T2 sequence (O42275 24-633): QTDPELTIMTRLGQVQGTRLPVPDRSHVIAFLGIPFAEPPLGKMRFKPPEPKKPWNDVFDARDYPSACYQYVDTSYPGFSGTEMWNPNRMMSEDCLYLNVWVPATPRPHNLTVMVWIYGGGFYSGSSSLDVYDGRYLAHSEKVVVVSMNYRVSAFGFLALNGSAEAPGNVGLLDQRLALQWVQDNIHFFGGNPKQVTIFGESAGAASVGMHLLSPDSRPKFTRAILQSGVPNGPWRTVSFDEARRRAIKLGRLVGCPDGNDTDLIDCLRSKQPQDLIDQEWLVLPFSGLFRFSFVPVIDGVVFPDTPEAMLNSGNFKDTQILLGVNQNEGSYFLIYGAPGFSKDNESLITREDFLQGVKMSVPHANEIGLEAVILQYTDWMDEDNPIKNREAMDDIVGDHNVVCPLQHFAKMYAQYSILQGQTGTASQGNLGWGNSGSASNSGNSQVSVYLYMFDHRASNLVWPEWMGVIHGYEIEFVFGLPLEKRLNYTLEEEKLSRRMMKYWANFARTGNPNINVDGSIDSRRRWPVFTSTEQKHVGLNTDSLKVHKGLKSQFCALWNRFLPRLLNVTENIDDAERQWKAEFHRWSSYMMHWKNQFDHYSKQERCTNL

On to `O=c1cc(-c2ccc(O)c(O)c2)oc2cc(O[C@@H]3O[C@H](CO)[C@@H](O)[C@H](O)[C@H]3O)cc(O)c12` [Cynaroside, cynaroside, reference compound], for which the EC50 in assay [1] worked out at 38.3 ± 0.69 µM. Further, in assay [1] (setting [9]), the “SC50 Superoxide” value is listed as 13.41 ± 2.56 ^A μg/mL.

For `C[C@H]1[C@H](C)CC[C@]2(C(=O)O)CC[C@]3(C)C(=CC[C@@H]4[C@@]5(C)C[C@@H](O)[C@H](O)C(C)(C)[C@@H]5CC[C@]43C)[C@H]12` [Corosolic acid (3), corosolic acid], the EC50 in assay [2], in assay [3] and in assay [1] was greater than 400 µM throughout. The “TE FRAP” value in assay [4] (setting [10]) was less than 1 mM/g. Moreover, the half-maximal inhibitory concentration (IC50) (usually the concentration needed to halve the response being measured) in assay [5] (isolated components (Table 5), read-out: IC50 α-Glucosidase) was 13.8 ± 2.11 µM; in assay [6] (isolated components (Table 5)), 283 ± 17 µM.

For the compound `C[C@@H]1O[C@@H](OC[C@H]2O[C@@H](Oc3c(-c4ccc(O)c(O)c4)oc4cc(O)cc(O)c4c3=O)[C@H](O)[C@@H](O)[C@@H]2O)[C@H](O)[C@H](O)[C@H]1O` [Rutin (6), rutin], the EC50 is 66.3 ± 1.68 µM in assay [2], 20 ± 0.3 µM in assay [3] and 6.69 ± 0.25 µM in assay [1]. Also, the “TE FRAP” value in assay [4] (setting [10]) was 1609.10 ± 25.67 ^A mM/g. Besides, the IC50 in assay [6] (isolated components (Table 5)) came out at 452 ± 12.9 µM; in assay [7] (RAW264.7, 24 h), 29.5 ± 1.19 µM.

Consider `Oc1cc(O)c2c(c1)O[C@H](c1ccc(O)c(O)c1)[C@H](O)C2` [Epicatechin (5), epicatechin], for which the EC50 in assay [2] amounted to 56.9 ± 0.91 µM; in assay [3], 7.83 ± 0.34 µM; in assay [1], 210 ± 9.46 µM. The “TE FRAP” value in assay [4] (setting [10]) is given as 1694.43 ± 21.45 ^A mM/g. Further, the figures for the IC50 in assay [5], in assay [6] (isolated components (Table 5)) and in assay [7] (setting [11]) were greater than 800 µM, 405 ± 26.3 µM and greater than 50 µM, respectively.

Take `O=C(/C=C/c1ccc(O)c(O)c1)O[C@@H]1C[C@](O)(C(=O)O)C[C@@H](O)[C@H]1O` [Chlorogenic acid, chlorogenic acid, reference compound]: the IC50 in assay [6] (isolated components (Table 5)) was 320 ± 4.13 µM; in assay [6] (solvent extracts (Table 3)), 386 µM.

As to `CC1CCC2(C(=O)O)CCC3(C)C(=CCC4C5(C)CC(O)C(O)C(C)(C)C5CCC43C)C2C1(C)O` (stereo not shown) [Tormentic acid (4), tormentic acid], the EC50 in assay [2], in assay [3] and in assay [1] was greater than 400 µM each time. Also, the “TE FRAP” value in assay [4] (setting [10]) is given as less than 1 mM/g. Further, the IC50 is 320 ± 26.1 µM in assay [5], 281 ± 8.55 µM in assay [6] (isolated components (Table 5)) and greater than 50 µM in assay [7] (setting [11]).

For `C[C@H]1[C@H](C)CC[C@]2(C(=O)O)CC[C@]3(C)C(=CC[C@@H]4[C@@]5(C)CC[C@H](O)C(C)(C)[C@@H]5CC[C@]43C)[C@H]12` [Ursolic acid (2), ursolic acid], the IC50 in assay [6] (isolated components (Table 5)) was 311 ± 7.31 µM; in assay [7] (setting [11]) it was 20.2 ± 1.46 µM. Also, the figures for the “Inhibition of iNOS expression” value in assay [8] (10 μM) and in assay [8] (20 μM) were 26.7% and 68.1%, respectively.

With `O=c1c(O)c(-c2ccc(O)c(O)c2)oc2cc(O)cc(O)c12` [Quercetin, quercetin, reference compound], the 50% inhibitory concentration (IC50) in assay [7] (setting [11]) amounted to 17.1 ± 1.63 µM.

As for `CC1(C)CC[C@]2(C(=O)O)CC[C@]3(C)C(=CC[C@@H]4[C@@]5(C)CC[C@H](O)C(C)(C)[C@@H]5CC[C@]43C)[C@@H]2C1` [Oleanolic acid (1), oleanolic acid], the EC50 in assay [2], in assay [3] and in assay [1] was greater than 400 µM throughout. In addition, in assay [4] (setting [10]), the “TE FRAP” value is given as less than 1 mM/g. Moreover, in assay [7] (RAW264.7, 24 h), the half-maximal inhibitory concentration (IC50) is greater than 50 µM.

Consider `Cc1cc(C(C)(C)C)c(O)c(C(C)(C)C)c1` [BHT, reference compound], for which the figures for the EC50 in assay [2] and in assay [3] were 881 ± 70.4 µM and 25.87 ± 0.01 µM, respectively. Besides, the “SC50 DPPH” value in assay [2] (setting [9]) is reported as 230.05 ± 25.40 ^AB μg/mL. The “SC50 ABTS” value in assay [3] (setting [9]) was 29.95± 1.04 ^A μg/mL. Also, the “TE FRAP” value is 3082.65 ± 213.69 ^B mM/g in assay [4] (setting [10]) and 3370.27 ± 256.53 ^D mM/g in assay [4] (solvent extracts (Table 2), mM Trolox equivalents per gram).
